# Test results: patent US20250134905A1, “USE OF SMALL-MOLECULE COMPOUND HOMOHARRINGTONINE IN MANUFACTURING DRUG FOR TREATING ACQUIRED IMMUNE DEFICIENCY SYNDROME” (Hangzhou City University, priority 2022, published 2025)
# System: HIV-1
# Assay: microbe, parasite or virus in culture
# Conditions: Human immunodeficiency virus 1, HEK293, read-out: EC50 in inhibiting the production of HIV-1
smiles,measurement,value
COC(=O)C[C@](O)(CCCC(C)(C)O)C(=O)O[C@@H]1C(OC)=C[C@]23CCCN2CCc2cc4c(cc2[C@H]13)OCO4 [homoharringtonine],EC50,8.57 nM
